Reference: ChEMBL document CHEMBL5728673, “Substituted imidazopyridine compounds as inhibitors of indoleamine 2,3-dioxygenase and/or tryptophan-2,3-dioxygenase” (2021)

Assays:
[1] = target: Indoleamine 2,3-dioxygenase 1 (Homo sapiens, UniProt P14902); test: (§1) Biochemical Coupled Assay: Recombinant human IDO or TDO was incubated in 50 mM KPO4 (pH 7.0), 0.5 mM EGTA, 0.5 mM EDTA, 0.05% Triton™ X100, 20 mM ascorbate, 10 μM methylene blue, 500 U/ml catalase, 50 μg/ml KynB (kynurenine formamidase). TDO assays were carried out in the presence of 330 μM L-tryptophan, while IDO assays had the addition of 45 μM L-tryptophan. After incubation for 17 minutes at room temperature the reactions were stopped by the addition of Erhlich's reagent and incubated at room temperature for 5 minutes before the fluorescence was read.
[2] = target: Tryptophan 2,3-dioxygenase (Homo sapiens, UniProt P48775); test: as §1
Sequence of Tryptophan 2,3-dioxygenase (P48775 whole entry): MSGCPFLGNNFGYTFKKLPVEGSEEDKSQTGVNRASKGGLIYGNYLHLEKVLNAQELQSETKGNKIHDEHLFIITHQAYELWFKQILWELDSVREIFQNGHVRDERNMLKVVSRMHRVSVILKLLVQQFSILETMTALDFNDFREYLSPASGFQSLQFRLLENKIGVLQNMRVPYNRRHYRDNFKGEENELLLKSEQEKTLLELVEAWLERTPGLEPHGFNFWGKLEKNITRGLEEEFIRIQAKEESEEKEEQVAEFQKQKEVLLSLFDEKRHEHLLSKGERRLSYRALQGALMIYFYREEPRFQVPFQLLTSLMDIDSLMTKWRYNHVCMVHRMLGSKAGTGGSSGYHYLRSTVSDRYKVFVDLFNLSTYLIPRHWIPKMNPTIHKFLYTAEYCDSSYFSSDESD

Sequence of Indoleamine 2,3-dioxygenase 1 (P14902 whole entry): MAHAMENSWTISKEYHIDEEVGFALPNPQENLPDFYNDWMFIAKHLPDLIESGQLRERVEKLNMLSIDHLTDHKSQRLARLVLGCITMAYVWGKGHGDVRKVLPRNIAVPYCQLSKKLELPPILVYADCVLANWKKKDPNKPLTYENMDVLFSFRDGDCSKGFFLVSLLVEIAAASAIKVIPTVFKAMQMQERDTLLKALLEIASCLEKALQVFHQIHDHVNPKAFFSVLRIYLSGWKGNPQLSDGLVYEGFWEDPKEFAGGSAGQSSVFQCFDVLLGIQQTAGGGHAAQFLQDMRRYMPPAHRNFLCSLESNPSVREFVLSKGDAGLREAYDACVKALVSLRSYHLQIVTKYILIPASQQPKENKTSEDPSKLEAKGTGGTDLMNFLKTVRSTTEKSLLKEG

CC1(C)CN(c2cc(Cl)cc3cncn23)CCC12NC(=O)NC2=O (configuration not stated)
IC50 [1]: 148 nM
IC50 [2]: 1590 nM
